# According to paper PMC6416464 (Drug Metabolism Letters, 2018):
# Assays:
# CYP3A4 [1] = target: T1, CYP3A4 (Homo sapiens, UniProt P08684); assay: in vitro; conditions: microsomes, pH 7.4
# CYP1A2 = target: T2, CYP1A2 (Homo sapiens, UniProt P05177); assay: CYP inhibition in human liver microsomes, CYP1A2
# T2 sequence (P05177 1-516): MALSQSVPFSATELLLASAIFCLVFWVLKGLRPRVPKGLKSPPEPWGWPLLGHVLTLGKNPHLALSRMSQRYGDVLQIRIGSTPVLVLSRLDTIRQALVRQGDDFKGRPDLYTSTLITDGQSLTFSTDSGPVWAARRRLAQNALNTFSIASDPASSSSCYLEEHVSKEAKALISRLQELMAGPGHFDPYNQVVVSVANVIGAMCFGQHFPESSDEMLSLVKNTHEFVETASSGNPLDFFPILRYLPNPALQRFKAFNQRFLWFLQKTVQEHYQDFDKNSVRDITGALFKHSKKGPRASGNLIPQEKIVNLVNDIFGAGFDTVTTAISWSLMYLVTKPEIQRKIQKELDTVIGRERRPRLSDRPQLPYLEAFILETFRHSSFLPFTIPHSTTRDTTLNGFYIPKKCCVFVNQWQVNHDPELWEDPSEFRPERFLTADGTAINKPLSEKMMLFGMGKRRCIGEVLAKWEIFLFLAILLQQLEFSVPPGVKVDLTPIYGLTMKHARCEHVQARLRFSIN
# CYP2C8 = target: T3, CYP2C8 (Homo sapiens, UniProt P10632); assay: CYP inhibition in human liver microsomes, CYP2C8; conditions: human, human liver microsomes, pH 7.4, probe paclitaxel
# T3 sequence (P10632 1-490): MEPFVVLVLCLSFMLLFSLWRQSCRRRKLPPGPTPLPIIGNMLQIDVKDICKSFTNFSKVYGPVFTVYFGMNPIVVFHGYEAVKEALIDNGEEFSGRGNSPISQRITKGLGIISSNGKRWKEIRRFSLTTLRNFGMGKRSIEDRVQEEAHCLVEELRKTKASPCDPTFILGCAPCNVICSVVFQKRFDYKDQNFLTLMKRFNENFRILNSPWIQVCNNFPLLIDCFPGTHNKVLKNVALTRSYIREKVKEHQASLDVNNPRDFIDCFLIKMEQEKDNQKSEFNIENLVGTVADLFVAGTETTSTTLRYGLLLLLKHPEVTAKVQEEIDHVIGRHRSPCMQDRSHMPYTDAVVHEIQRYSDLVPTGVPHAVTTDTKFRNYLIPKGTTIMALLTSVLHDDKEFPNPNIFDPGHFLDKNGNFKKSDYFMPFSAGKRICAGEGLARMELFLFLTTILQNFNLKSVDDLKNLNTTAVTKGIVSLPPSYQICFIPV
# rCYP3A4 = rCYP3A4 (Homo sapiens, UniProt P08684)
# CYP3A4 [2] = target: T1, CYP3A4; assay: in vitro; conditions: microsomes, pH 7.4, % Inhibition of Control Activity CYP3A4 (substrate, testosterone)
# rCYP2D6 = rCYP2D6 (Homo sapiens, UniProt P10635); assay: Metabolic stability / reaction phenotyping with recombinant human CYP2D6
# rCYP2C8 = target: T4, rCYP2C8 (Homo sapiens, UniProt P10632); assay: Metabolic stability / reaction phenotyping with recombinant human CYP2C8
# T4 sequence (P10632 1-490): T3 sequence (P10632 1-490)
# rCYP2C9 = rCYP2C9 (Homo sapiens, UniProt P11712); assay: Metabolic stability / reaction phenotyping with recombinant human CYP2C9
# [3] = Metabolic stability, incubation with human liver microsomes; conditions: 1 µM test compound, 0.5 mg/mL protein
# rCYP1A2 = target: T5, rCYP1A2 (Homo sapiens, UniProt P05177); assay: Metabolic stability / reaction phenotyping with recombinant human CYP1A2
# T5 sequence (P05177 1-516): T2 sequence (P05177 1-516)
# rCYP2C19 = rCYP2C19 (Homo sapiens, UniProt P33261); assay: Metabolic stability / reaction phenotyping with recombinant human CYP2C19
# [4] = Metabolic stability, incubation with human liver cytosol; assay type: in vitro ADME; conditions: 1 µM test compound, 1 mg/mL protein
# [5] = 1 µM test compound, 100 pmol/mL, 30 min
# [6] = human, recombinant enzyme, pH 7.4
# [7] = human, recombinant human CYP2D6, 1 µM, pH 7.4
# [8] = human, recombinant human CYP2C8, 1 µM, pH 7.4
# [9] = human, recombinant human CYP2C9, 1 µM, pH 7.4
# [10] = human, recombinant human CYP1A2, 1 µM, pH 7.4
# [11] = human, recombinant human CYP2C19, 1 µM, pH 7.4
# rCYP3A4, sequence (P08684 whole entry): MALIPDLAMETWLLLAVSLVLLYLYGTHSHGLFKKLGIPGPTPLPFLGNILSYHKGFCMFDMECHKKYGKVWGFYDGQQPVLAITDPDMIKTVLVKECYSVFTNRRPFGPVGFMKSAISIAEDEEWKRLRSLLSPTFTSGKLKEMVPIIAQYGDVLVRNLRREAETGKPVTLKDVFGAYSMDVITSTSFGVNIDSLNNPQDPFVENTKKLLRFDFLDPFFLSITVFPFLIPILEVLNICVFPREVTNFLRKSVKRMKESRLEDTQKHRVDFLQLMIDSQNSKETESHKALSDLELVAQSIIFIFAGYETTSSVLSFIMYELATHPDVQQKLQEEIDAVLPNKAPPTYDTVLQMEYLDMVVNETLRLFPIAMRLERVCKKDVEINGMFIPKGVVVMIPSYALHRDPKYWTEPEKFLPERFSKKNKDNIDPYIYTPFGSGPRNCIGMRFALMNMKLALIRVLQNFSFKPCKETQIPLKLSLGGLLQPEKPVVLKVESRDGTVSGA
# rCYP2C9, sequence (P11712 whole entry): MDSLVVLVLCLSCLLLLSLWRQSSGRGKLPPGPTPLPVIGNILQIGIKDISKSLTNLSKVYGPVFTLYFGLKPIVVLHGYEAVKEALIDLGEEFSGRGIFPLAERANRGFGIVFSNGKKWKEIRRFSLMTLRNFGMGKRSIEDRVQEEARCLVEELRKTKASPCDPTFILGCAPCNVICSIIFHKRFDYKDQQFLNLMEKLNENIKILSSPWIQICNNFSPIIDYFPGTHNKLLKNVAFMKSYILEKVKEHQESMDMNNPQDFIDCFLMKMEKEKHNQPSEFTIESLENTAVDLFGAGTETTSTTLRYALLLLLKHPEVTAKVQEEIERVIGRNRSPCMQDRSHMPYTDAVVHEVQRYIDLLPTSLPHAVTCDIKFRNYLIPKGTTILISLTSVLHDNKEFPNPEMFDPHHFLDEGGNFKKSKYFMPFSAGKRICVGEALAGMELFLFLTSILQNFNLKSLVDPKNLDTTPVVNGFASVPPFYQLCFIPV
# rCYP2D6, sequence (P10635 whole entry): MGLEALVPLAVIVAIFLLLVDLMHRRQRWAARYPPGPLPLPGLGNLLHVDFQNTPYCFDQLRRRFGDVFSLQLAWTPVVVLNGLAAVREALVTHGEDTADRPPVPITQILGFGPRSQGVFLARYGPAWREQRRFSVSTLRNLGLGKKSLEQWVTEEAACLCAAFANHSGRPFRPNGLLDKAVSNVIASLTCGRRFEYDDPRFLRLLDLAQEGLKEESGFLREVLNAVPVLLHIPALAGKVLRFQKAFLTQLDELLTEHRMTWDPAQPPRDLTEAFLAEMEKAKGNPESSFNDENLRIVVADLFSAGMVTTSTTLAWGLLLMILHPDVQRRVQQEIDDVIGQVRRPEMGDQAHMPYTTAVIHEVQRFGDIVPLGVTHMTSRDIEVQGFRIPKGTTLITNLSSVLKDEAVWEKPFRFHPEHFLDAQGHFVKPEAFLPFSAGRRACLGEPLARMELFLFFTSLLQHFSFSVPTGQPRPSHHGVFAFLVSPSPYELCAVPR
# T1 sequence (P08684 2-503): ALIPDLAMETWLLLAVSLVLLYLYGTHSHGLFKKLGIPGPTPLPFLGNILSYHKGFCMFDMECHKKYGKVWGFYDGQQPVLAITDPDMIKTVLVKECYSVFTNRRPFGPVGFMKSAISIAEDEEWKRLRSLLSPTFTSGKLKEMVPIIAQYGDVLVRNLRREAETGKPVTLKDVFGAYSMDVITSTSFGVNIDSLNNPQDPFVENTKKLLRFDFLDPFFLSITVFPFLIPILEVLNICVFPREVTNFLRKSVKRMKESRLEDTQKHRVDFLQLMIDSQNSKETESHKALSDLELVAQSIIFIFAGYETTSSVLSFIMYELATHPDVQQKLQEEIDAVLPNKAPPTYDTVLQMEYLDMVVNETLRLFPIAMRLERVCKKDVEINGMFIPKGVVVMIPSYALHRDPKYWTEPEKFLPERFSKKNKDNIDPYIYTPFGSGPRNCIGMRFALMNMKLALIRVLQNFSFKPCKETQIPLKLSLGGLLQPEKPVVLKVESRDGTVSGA
# rCYP2C19, sequence (P33261 whole entry): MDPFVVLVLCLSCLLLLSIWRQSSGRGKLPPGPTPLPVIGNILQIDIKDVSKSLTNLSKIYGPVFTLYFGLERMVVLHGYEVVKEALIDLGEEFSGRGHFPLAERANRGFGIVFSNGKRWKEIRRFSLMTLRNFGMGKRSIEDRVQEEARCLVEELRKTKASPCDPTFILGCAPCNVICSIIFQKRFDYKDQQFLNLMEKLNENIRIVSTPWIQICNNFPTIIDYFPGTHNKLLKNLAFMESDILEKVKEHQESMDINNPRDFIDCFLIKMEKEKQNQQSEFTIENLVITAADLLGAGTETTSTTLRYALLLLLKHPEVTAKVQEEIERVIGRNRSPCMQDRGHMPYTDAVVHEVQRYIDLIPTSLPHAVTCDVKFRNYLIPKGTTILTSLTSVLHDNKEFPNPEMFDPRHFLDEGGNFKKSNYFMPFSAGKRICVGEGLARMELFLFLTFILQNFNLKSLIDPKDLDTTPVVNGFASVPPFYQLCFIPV
compound,measurement,setting,value
"CNC(=O)Oc1cc(C)c(SC)c(C)c1 [Methiocarb, methiocarb]",inhibition at 2 µM,CYP3A4 [1],< 0%
same,inhibition at 10 µM,CYP3A4 [1],< 0%
same,IC50,CYP1A2,710 nM
same,inhibition at 2 µM,CYP2C8,< 0%
same,inhibition at 10 µM,CYP2C8,< 0%
same,% Metabolized at 30 min Incubation with Human Liver Fractions/Enzymes rCYP3A4,rCYP3A4; [5],98.38%
same,"Predicted Microsomal Clint, CYP3A4","rCYP3A4; human, pH 7.4",188.076 µL/min/mg Protein
same,"% Contribution of CYP Enzymes (fmCYP) in Metabolism, CYP3A4",rCYP3A4; [6],81.34%
same,"rCYP Clint, CYP3A4",rCYP3A4; [6],1.694 µL/min/pmol
same,inhibition at 2 µM,CYP3A4 [2],8.34%
same,inhibition at 10 µM,CYP3A4 [2],29.7%
same,% Metabolized at 30 min Incubation with Human Liver Fractions/Enzymes rCYP2D6,rCYP2D6; [5],99.43%
same,"% Contribution of CYP Enzymes (fmCYP) in Metabolism, CYP2D6",rCYP2D6; [7],7.46%
same,"Predicted Microsomal Clint, CYP2D6",rCYP2D6; [7],17.239 µL/min/mg Protein
same,"rCYP Clint, CYP2D6",rCYP2D6; [7],1.724 µL/min/pmol
same,% Metabolized at 30 min Incubation with Human Liver Fractions/Enzymes rCYP2C8,rCYP2C8; [5],41.44%
same,"% Contribution of CYP Enzymes (fmCYP) in Metabolism, CYP2C8",rCYP2C8; [8],4.94%
same,"Predicted Microsomal Clint, CYP2C8",rCYP2C8; [8],11.416 µL/min/mg Protein
same,"rCYP Clint, CYP2C8",rCYP2C8; [8],0.178 µL/min/pmol
same,% Metabolized at 30 min Incubation with Human Liver Fractions/Enzymes rCYP2C9,rCYP2C9; [5],6.50%
same,"% Contribution of CYP Enzymes (fmCYP) in Metabolism, CYP2C9",rCYP2C9; [9],0.93%
same,"Predicted Microsomal Clint, CYP2C9",rCYP2C9; [9],2.151 µL/min/mg Protein
same,"rCYP Clint, CYP2C9",rCYP2C9; [9],0.022 µL/min/pmol
same,% Metabolized at 30 min Incubation with Human Liver Fractions/Enzymes HLM,[3],78.39%
same,% Metabolized at 30 min Incubation with Human Liver Fractions/Enzymes rCYP1A2,rCYP1A2; [5],46.94%
same,"% Contribution of CYP Enzymes (fmCYP) in Metabolism, CYP1A2",rCYP1A2; [10],4.75%
same,"Predicted Microsomal Clint, CYP1A2",rCYP1A2; [10],10.987 µL/min/mg Protein
same,"rCYP Clint, CYP1A2",rCYP1A2; [10],0.211 µL/min/pmol
same,% Metabolized at 30 min Incubation with Human Liver Fractions/Enzymes rCYP2C19,rCYP2C19; [5],19.42%
same,"% Contribution of CYP Enzymes (fmCYP) in Metabolism, CYP2C19",rCYP2C19; [11],0.59%
same,"Predicted Microsomal Clint, CYP2C19",rCYP2C19; [11],1.367 µL/min/mg Protein
same,"rCYP Clint, CYP2C19",rCYP2C19; [11],0.072 µL/min/pmol
same,% Metabolized at 30 min Incubation with Human Liver Fractions/Enzymes Cytosol,[4],6.93%
